{"source": "patent US8911771B2", "about": "“Fluid application device and method” (Otsuka America Pharmaceutical, Inc., priority 2004, dated 2014)", "test_system": "wide range of bacteria (1050 organisms; clinical isolates from a number of bacterial and fungal species)", "assay": "in vitro minimum inhibitory concentration (MIC) testing", "format": "cell-based", "conditions": "concentration of olanexidine solution inhibiting >95% of 1050 organisms", "text": "The bacteria included in the MIC testing study included clinical isolates from a number of bacterial and fungal species. The MIC method is a widely accepted methodology that is useful for determining and comparing in vitro antimicrobial activity, while the Pig Skin Model is useful for determining activity under simulated conditions of use. The following chart summarizes the results obtained with the Pig Skin Model: […]"}
{"smiles": "CCCCCCCCNC(=N)NC(=N)NCc1ccc(Cl)c(Cl)c1", "note": "[olanexidine, 1-(3,4-dichlorobenzyl)-5-octylbiguanide]", "values": [{"measurement": "MIC", "value": "≤ 32", "unit": "µg/mL"}]}
